The test system of the test is MDA-MB-231 and U138 MG cells. The test can be described thus: Laser scanning confocal fluorescence microscopy of cellular uptake. It is filed as cell-based, human. The note with it: for Cy5.5 fluorescence intensity in MDA-MB-231 cells versus U138MG cells: 0.3 μM Cy5.5 equivalent, 1 h, 37 °C, confocal microscopy; for effect of C225 preincubation on cellular fluorescence: C225 preincubation 12 h, then agent for 1 h, MDA-MB-231 and U138 MG cells. On the procedure: To investigate the intracellular distribution of EBP-Gd-DO3A in cells with different levels of EGFR expression, MDA-MB-231 and U138 MG cells were seeded on glass coverslips in 24-well plates (5 × 10^4 cells per well). After 24 h, the cells were washed twice with serum-free medium, treated with 0.3 μM Cy5.5 or Cy5.5-EBP-Gd-DO3A (concentration of equivalent Cy5.5), and incubated at 37 °C for 1 h. Following incubation, cells were washed three times with PBS (pH 7.4) to remove unbound probes and were stained with 4′,6-diamidino-2-phenylindole (DAPI) (Sigma-Aldrich) for 10 min and examined with a laser scanning confocal fluorescence microscope (Leica, TCS SP8) with a 40 × objective lens. The fluorescence signals from Cy5.5 and its conjugates were visualized at λex = 680 nm and λem = 710 nm, while the fluorescence signals of DAPI (nucleus) were performed at λex = 350 nm and λem = 460 nm. The laser power, illumination intensity, and exposure time were kept identical across all samples to ensure quantitative comparability. To further characterize the selective cellular uptake of the conjugate via the EGFR-mediated pathway, the cells were preincubated with C225 for 12 h at 37 °C before probe treatment. Following the removal of the pretreatment solution, the cells were washed with serum-free medium, treated with Cy5.5 or Cy5.5-EBP-Gd-DO3A conjugate, and incubated at 37 °C as described above. The cells were stained with DAPI and visualized using the laser scanning confocal fluorescence microscope, and the fluorescent intensity of the cells was analyzed using Image J.

As to “CMYIEALDKYAC [Cy5.5-EBP-Gd-DO3A, Cy5.5-labelled EBP-Gd-DO3A conjugate for fluorescence microscopy]”, the “Cy5.5 fluorescence intensity in MDA-MB-231 cells versus U138MG cells” value is “much stronger” and the “effect of C225 preincubation on cellular fluorescence” value is recorded as “inhibited”.
The corresponding values for Cy5.5 [reference compound] are “the same” and “did not affect”.

The record behind these values is article PMC12810539, “EGFR-targeted gadolinium contrast agents for enhanced molecular magnetic resonance imaging of tumors” (The Journal of Biological Chemistry, 2025).
